# Tests used:
# Type in all cases: in vivo
# Ctenocephalides felis [1] = assay: Ctenocephalides felis in-vitro contact test adult cat flea; settings: Ctenocephalides felis; 5 μg/cm^2 (=500 g/ha), after 48 hours; read-out: efficacy (fleas dead or moribund)
# Summary of the method: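 Efficacy (% dead or moribund) was scored 48 h after adult Ctenocephalides felis were confined in tubes coated with the acetone-applied compound (900 ppm, 5 μg/cm^2). Moribund status was judged by failure to escape a 45-50° C heating plate within 5 minutes.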
# Rhipicephalus sanguineus = Rhipicephalus sanguineus in-vitro contact test with adult brown dog ticks; settings: Rhipicephalus sanguineus; 5 μg/cm^2 (=500 g/ha), after 48 hours; read-out: efficacy (ticks dead or moribund)
# Summary of the method: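 Compound in acetone coated onto inner walls of glass tubes; 900 ppm gives 5 μg/cm^2. Five to ten adult ticks held 48 h at room temperature, then heated at 45-50° C. up to 5 min; ticks unable to climb away scored dead or moribund, efficacy as % dead/moribund.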
# Ctenocephalides felis [2] = assay: Ctenocephalides felis oral test; settings: Ctenocephalides felis, in Bos taurus, po, 48 h
# Summary of the method: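 About 20 adult unfed fleas fed through parafilm on cattle blood containing compound (DMSO concentrate diluted in blood); blood held at 37° C., fleas at room temperature. Mortality in % scored after 2 days (100% = all killed).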
# [3] = test system: cattle ticks (Boophilus microplus) strane Parhurst, SP-resistant; assay: Boophilus microplus dip test; settings: 100 ppm, egg deposition after 7 days
# Protocol: Boophilus microplus—Dip Test
# Test animal: cattle ticks (Boophilus microplus) strane Parhurst, SP-resistant
# Solvent: dimethyl sulfoxide
# To produce a suitable preparation of active compound, 10 mg of active compound are dissolved in 0.5 ml solvent, and the concentrate is diluted with water to the desired concentration.
# This compound solution is pipetted into tubes. 8-10 engorged, adult, female cattle ticks (Boophilus microplus) are placed in perforated tubes. These tubes are immersed in the aqueous compound solution until the ticks are completely moistened. After the liquid has drained off, the ticks are transferred to a filter paper in a plastic tray and stored in a climate chamber.
# After 7 days egg deposition of fertile eggs is monitored. Eggs where fertility is not visible are stored in a climate chamber till hatching after about 42 days. An efficacy of 100% means all eggs are infertile; 0% means all eggs are fertile.
# [4] = test system: Anopheles funestus strain FUMOZ-R; assay: Anopheles funestus test (ANPHFU surface treatment & contact assay); settings: surface concentration 20 mg/m^2, 30 minutes exposure, 24 hours after contact, read-out: efficacy (mortality)
# Summary of the method: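 Compound dissolved in acetone (2 mg/ml) with 2000 ppm rapeseed oil methyl ester, dried onto glazed tile; adult Anopheles funestus FUMOZ-R exposed for 30 minutes. Percent mortality scored 24 hours after contact.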
SMILES,"pest or weed control at 5 µg/cm2, 5 µg/cm2 (Ctenocephalides felis [1]) [%]","pest or weed control at 5 µg/cm2, 5 µg/cm2 (Rhipicephalus sanguineus) [%]",mortality at 100 ppm (Ctenocephalides felis [2]) [%],efficacy (infertile eggs) [3] [%],mortality at 20 mg/m2 [4] [%]
"CCN(C(=O)c1cc(Cl)cc(S(C)(=O)=O)c1)C(C)c1ncnn1-c1ncccn1 (centres unmarked) [Example I-040, 3-chloro-N-ethyl-5-(methylsulfonyl)-N-{1-[1-(pyrimidin-2-yl)-1H-1,2,4-triazol-5-yl]ethyl}benzamide]",100,100,100,–,–
C[C@@H](NC(=O)c1cc(Cl)cc(S(=O)(=O)C2CC2)c1)c1ncnn1-c1ncccn1 [Example I-042],100,80,100,100,85 to 100

# Source: US12187705B2, “Heteroaryl-triazole and heteroaryl-tetrazole compounds as pesticides” (Bayer Aktiengesellschaft, priority 2018, dated 2025)
